“Also recorded” adds a separate entry of the source.

Assay type in all cases: cell-based, human
Experiment [1] concerns p-Akt. The experiment in a line: hMSC intracellular signaling analysis, Akt/mTOR phosphoprotein 11-plex. From the text:
Millipore Corporation) system.

Experiment [2] relates to more therapeutic hMSCs (donors M1 and M2). The experiment in a line: Cytokine secretion of more therapeutic hMSCs after pharmacological intervention (Luminex 41 Plex, PLSDA). Particulars: for overall paracrine (cytokine) signaling response / secretion of therapeutic related cytokines (GM-CSF, GRO, IL-4, PDGF-AA): donors M1 and M2, +IL-1β 24 hr, vs CTRL. Here is the method: (§1) Loaded samples (2.03 μL) were determined to be within the linear range of detection of the […] Millipore Corporation) system. Cytokines were quantified using a bead based multiplex immunoassay, Luminex Cytokine/Chemokine 41 Plex Immunomodulatory Kit ([…] Millipore Corporation). […] PLSDA was performed in MATLAB (Mathworks) using a function written by Cleiton Nunes (Mathworks File Exchange). This approach accounts for the multivariate nature of the data without overfitting. Prior to inputting the data into the algorithm, all data was z-scored [(observed-mean)/SD]. Intracellular signaling phospho-proteins and cytokine media read outs were used as the independent variables and the different hMSC donor's treatment conditions were used as the outcome variables. LVs in a multidimensional space (dimensionality varied by number of independent input variables) were defined and the two primary LVs were used for orthogonal rotation to best separate groups in the new plane defined by LV1 and LV2 (FIGS. 5a-5c). • Statistical Analysis

Experiment [3] has as its system less therapeutic hMSCs (donors L1 and L2). In words: Cytokine secretion of less therapeutic hMSCs after pharmacological intervention (Luminex 41 Plex, PLSDA). Particulars: vs CTRL. The method, then:
as §1

With `CCOC(=O)C1=C(N)Oc2ccc(Cl)cc2C1C(C#N)C(=O)OCC` (stereo not drawn) [SC79], the “p-Akt phospho-protein levels relative to CTRL” value in experiment [1] (more therapeutic hMSC donor M2, combination SP600125 and SC79, +IL-1β) is given as “significantly (p<0.001) more p-Akt phospho-protein levels; also recorded: increased p-Akt signaling”. Further, in experiment [2] (donors M1 and M2, +IL-1β), the “secretion of nonspecific cytokines” value is on record as “potentiated secretion of nonspecific cytokines” and the “shift of paracrine signaling profile (PLSDA)” value is reported as “clear qualitative shift in the paracrine signaling profiles”. In addition, in experiment [2], the “overall paracrine (cytokine) signaling response” value is listed as “the greatest potentiation of paracrine signaling” and the “secretion of therapeutic related cytokines (GM-CSF, GRO, IL-4, PDGF-AA)” value (from here on “secretion … (GM-CSF, GRO, IL-4, PDGF-AA)”) was “no effect”.

On to `NC1(c2ccc(-c3nc4ccn5c(=O)[nH]nc5c4cc3-c3ccccc3)cc2)CCC1` [MK-2206], for which the “p-Akt phospho-protein levels relative to CTRL” value in experiment [1] (less therapeutic hMSC donor L2, combination Metformin and MK-2206, +IL-1β) was “significantly (p<0.01) less p-Akt phospho-protein levels; also recorded: decreased p-Akt signaling”. Further, in experiment [3] (donors L1 and L2, +IL-1β 24 hr), the “secretion … (GM-CSF, GRO, IL-4, PDGF-AA)” value is recorded as “no effect”. For the same molecule, the “secretion of nonspecific cytokines” value in experiment [3] (donors L1 and L2, +IL-1β) is given as “distinct reductions in nonspecific cytokines”.

For the molecule `C[S+]([O-])c1ccc(-c2nc(-c3ccncc3)c(-c3ccc(F)cc3)[nH]2)cc1` (stereo not drawn) [SB203580], in experiment [2], the “secretion … (GM-CSF, GRO, IL-4, PDGF-AA)” value is on record as “reduced cytokine secretion of the therapeutic related cytokines”.

Regarding `CO[C@H]1C[C@@H]2CC[C@@H](C)[C@@](O)(O2)C(=O)C(=O)N2CCCC[C@H]2C(=O)O[C@H]([C@H](C)C[C@@H]2CC[C@@H](O)[C@H](OC)C2)CC(=O)[C@H](C)/C=C(\C)[C@@H](O)[C@@H](OC)C(=O)[C@H](C)C[C@H](C)/C=C/C=C/C=C/1C` [Rapamycin], the “secretion … (GM-CSF, GRO, IL-4, PDGF-AA)” value in experiment [2] is reported as “no effect”.

On to `Cc1cc(N2CCOCC2)cc2[nH]c(-c3c(NC[C@@H](O)c4cccc(Cl)c4)cc[nH]c3=O)nc12` [BMS-536924], for which, in experiment [2], the “overall paracrine (cytokine) signaling response” value is on record as “reduced overall paracrine signaling response” and the “secretion … (GM-CSF, GRO, IL-4, PDGF-AA)” value is given as “no effect”.
